Results from patent publication US20060110332A1, “Agent for medicamentous treatment of acute and chronic pain” (Max-Delbruck-Centrum Fur Molekulare Medizin, priority 2002, published 2006).
Entries after “also recorded” stand apart in the source; their conditions may differ. Where two headings read alike, the source gives them in different places.

Tests used:
CaV3.2 = CaV3.2 (Homo sapiens, UniProt O95180); conditions: cited from earlier work
living tissue = conditions: cited from earlier work
[1] = tested on: cutaneous mechanotransduction; test: Skin-nerve preparation (saphenous nerve), mechanical sensitivity of the skin; parameters: species or system mice
Experimental: The use of the skin-nerve preparation, which the present invention is based on, allows for the electrophysiological analysis of the different neurofibre types which innervate the skin (Koltzenburg et al., 1997, see above). The saphenous nerve and the region of the skin that it innervates are prepared from freshly killed mice and are mounted in a bath of physiological buffer. After mechanical or electrical stimulation of the skin, the nerve signals can be received directly from the nerve. For determining the effective concentration, tests were carried out with different concentrations of mibefradil in the bath solution. The EC50 of mibefradil on cells is between 0.1 and 1 μM. […] The unspecific blockade at high concentrations may be due to the fact that mibefradil, at high concentrations, has a very unspecific effect on other ubiquitously expressed calcium channels. Such blocking is lost at lower concentrations. The blocking of some AM mechanoreceptors also at low concentrations of mibefradil could have two reasons. The first possibility is that AM mechanoreceptors, too, express CaV3.2. This, however, is not very likely based on the findings obtained by the in-situ hybridisation within the framework of the present invention. It may rather be assumed that a different isotype, i.e. CaV3.3 is expressed in AM mechanoreceptors. It was not possible to detect CaV3.3 in in-situ hybridisation experiments in spinal ganglia, but other groups reported the expression of this calcium channel in medium-size cells. […] To sum up, it is concluded that the calcium channel CaV3.2 in spinal ganglia specifically expresses in D-hair mechanoreceptors and is therefore indispensable for its function. The discovery that the voltage-dependent calcium channels are involved in the transduction of mechanical stimuli by nociceptive and non-nociceptive neurons is new. Due to their physiological properties together with their specific localisation on the site of the mechanotransduction in the periphery, the calcium channels are ideal targets for pain therapy, which the invention is based on.

D-hair mechanoreceptors = test: Skin-nerve preparation (saphenous nerve), D-hair mechanoreceptors; parameters: species or system mice; conditions: 3 μM mibefradil in the bath solution
Experimental: (§1) The use of the skin-nerve preparation, which the present invention is based on, allows for the electrophysiological analysis of the different neurofibre types which innervate the skin (Koltzenburg et al., 1997, see above). The saphenous nerve and the region of the skin that it innervates are prepared from freshly killed mice and are mounted in a bath of physiological buffer. After mechanical or electrical stimulation of the skin, the nerve signals can be received directly from the nerve. For determining the effective concentration, tests were carried out with different concentrations of mibefradil in the bath solution. The EC50 of mibefradil on cells is between 0.1 and 1 μM. […] The unspecific blockade at high concentrations may be due to the fact that mibefradil, at high concentrations, has a very unspecific effect on other ubiquitously expressed calcium channels. Such blocking is lost at lower concentrations. The blocking of some AM mechanoreceptors also at low concentrations of mibefradil could have two reasons. The first possibility is that AM mechanoreceptors, too, express CaV3.2. This, however, is not very likely based on the findings obtained by the in-situ hybridisation within the framework of the present invention. It may rather be assumed that a different isotype, i.e. CaV3.3 is expressed in AM mechanoreceptors. […]

AM mechanoreceptors = test: Skin-nerve preparation (saphenous nerve), AM mechanoreceptors; parameters: species or system mice; conditions: 3 μM mibefradil in the bath solution
Experimental: as §1

CaV3.1 = CaV3.1 (Rattus norvegicus, UniProt O54898); conditions: compared with CaV3.2; cited from earlier work
CaV3.3 = conditions: compared with CaV3.2, cited from earlier work
L-type calcium channels = conditions: cited from earlier work
[2] = reason for removal from the market; cited from earlier work
T-type calcium channels = conditions: cited from earlier work

Sequence of CaV3.2 (O95180 whole entry): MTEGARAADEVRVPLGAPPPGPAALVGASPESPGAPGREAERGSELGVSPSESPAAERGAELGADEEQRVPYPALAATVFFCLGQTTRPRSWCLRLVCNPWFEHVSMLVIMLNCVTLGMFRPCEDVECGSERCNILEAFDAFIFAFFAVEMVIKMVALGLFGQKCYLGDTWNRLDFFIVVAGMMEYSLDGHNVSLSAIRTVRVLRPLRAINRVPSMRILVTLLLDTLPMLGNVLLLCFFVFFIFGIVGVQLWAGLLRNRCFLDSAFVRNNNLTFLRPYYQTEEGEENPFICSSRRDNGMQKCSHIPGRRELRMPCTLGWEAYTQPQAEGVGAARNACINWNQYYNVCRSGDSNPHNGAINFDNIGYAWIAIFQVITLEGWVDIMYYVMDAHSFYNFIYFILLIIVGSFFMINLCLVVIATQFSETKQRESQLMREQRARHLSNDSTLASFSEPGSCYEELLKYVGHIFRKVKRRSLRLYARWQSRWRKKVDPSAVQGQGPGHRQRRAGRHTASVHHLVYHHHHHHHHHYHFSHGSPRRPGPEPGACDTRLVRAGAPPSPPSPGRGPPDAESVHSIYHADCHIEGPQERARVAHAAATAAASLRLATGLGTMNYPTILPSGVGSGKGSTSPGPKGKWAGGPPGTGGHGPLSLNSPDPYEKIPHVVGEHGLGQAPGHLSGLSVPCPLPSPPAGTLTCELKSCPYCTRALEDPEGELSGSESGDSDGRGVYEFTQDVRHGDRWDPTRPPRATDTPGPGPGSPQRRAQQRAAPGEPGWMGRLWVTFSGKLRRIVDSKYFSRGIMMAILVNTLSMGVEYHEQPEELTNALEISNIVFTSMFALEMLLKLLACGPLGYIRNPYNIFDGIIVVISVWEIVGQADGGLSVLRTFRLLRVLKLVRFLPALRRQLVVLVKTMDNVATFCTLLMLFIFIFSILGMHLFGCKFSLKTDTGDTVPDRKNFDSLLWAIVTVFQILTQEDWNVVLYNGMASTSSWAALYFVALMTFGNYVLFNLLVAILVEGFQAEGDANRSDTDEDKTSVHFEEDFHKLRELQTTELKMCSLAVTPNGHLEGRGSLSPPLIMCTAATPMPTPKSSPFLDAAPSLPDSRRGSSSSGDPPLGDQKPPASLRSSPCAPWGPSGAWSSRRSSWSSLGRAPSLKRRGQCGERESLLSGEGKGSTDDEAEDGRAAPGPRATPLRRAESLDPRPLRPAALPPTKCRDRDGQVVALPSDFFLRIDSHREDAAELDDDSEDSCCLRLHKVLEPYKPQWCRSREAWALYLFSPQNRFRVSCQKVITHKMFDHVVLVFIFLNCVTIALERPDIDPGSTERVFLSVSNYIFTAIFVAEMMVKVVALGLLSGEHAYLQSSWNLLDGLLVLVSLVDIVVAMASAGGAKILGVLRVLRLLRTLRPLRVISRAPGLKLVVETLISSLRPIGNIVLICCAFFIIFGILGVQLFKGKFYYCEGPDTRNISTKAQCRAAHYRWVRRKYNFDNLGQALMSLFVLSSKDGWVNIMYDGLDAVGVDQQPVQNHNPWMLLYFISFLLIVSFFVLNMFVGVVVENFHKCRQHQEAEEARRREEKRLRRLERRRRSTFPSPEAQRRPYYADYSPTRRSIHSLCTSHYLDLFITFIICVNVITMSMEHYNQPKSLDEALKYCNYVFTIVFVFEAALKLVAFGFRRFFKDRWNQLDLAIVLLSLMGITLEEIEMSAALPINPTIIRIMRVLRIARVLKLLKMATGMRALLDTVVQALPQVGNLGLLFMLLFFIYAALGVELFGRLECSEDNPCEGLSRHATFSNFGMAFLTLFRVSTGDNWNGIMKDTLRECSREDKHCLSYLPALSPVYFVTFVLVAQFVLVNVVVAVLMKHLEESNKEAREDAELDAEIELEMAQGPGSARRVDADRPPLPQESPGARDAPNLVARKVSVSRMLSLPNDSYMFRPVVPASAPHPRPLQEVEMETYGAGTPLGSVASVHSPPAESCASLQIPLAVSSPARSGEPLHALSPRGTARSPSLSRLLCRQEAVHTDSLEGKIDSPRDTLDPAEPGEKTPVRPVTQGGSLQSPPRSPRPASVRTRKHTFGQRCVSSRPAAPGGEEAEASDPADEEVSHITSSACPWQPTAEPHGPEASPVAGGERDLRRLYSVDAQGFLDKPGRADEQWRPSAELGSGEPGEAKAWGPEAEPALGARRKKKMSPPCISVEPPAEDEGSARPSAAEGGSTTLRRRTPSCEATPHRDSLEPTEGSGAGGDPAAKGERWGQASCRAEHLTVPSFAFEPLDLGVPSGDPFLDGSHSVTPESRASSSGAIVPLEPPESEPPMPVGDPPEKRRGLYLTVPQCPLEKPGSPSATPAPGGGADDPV
Sequence of CaV3.1 (O54898 whole entry): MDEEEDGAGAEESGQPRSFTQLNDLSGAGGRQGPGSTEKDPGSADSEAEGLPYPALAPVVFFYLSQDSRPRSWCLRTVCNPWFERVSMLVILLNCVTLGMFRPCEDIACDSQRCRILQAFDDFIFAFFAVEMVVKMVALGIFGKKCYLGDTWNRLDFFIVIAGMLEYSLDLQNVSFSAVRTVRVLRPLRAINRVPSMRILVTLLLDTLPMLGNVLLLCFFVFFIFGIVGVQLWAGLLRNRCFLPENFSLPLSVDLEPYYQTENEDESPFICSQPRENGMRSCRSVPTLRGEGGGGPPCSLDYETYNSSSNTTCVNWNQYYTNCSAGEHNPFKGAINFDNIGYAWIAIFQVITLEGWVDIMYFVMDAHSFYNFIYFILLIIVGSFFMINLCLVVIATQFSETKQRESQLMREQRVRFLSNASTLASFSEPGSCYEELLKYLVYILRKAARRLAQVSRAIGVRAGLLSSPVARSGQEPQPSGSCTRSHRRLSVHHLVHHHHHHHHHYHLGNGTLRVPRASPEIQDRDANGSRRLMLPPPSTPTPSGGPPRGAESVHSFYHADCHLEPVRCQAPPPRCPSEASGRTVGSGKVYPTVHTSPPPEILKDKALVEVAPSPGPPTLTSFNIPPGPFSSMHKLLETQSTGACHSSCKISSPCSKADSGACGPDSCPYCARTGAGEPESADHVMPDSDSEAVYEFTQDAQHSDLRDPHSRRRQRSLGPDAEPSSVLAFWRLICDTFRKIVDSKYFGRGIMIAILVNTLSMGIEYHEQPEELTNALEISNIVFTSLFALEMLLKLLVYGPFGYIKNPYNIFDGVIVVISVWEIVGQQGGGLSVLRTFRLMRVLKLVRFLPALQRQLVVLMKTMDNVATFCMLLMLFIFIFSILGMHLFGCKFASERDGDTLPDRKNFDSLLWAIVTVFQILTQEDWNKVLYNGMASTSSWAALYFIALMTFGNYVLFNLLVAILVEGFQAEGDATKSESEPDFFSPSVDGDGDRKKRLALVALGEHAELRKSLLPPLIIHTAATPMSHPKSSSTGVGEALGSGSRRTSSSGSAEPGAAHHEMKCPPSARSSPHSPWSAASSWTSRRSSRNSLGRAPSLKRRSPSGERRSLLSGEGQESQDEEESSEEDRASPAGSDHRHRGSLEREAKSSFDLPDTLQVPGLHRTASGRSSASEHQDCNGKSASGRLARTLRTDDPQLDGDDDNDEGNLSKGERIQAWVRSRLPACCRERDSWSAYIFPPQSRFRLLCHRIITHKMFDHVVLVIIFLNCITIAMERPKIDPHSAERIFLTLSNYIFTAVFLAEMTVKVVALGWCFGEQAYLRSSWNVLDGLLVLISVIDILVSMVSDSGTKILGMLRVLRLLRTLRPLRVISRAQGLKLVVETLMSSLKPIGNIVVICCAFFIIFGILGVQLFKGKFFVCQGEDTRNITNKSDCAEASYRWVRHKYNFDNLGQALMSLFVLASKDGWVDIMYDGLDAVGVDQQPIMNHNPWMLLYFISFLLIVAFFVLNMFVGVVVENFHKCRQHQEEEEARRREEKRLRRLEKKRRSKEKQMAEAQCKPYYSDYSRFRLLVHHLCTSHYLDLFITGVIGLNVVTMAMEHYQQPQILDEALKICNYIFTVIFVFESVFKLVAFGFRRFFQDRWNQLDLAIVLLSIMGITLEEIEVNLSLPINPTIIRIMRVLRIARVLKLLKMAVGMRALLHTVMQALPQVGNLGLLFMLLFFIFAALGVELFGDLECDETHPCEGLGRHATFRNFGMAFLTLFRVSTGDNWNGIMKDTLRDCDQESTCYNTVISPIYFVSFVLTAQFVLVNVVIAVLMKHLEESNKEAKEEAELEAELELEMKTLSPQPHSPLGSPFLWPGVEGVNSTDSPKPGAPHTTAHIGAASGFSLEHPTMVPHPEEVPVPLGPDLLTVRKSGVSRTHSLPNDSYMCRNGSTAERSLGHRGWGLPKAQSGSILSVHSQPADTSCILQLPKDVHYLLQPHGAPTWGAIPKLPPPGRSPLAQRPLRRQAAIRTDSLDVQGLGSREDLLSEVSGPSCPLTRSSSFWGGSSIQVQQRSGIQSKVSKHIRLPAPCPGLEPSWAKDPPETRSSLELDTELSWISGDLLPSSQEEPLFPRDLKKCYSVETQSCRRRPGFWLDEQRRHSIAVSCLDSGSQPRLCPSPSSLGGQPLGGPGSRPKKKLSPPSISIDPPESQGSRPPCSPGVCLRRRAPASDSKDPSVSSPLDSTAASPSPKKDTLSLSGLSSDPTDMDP

Row | Structure (SMILES) | EC50 on CaV3.2 relative to the other isotypes (CaV3.2; CaV3.2 versus other T-type isotypes) | EC50 (CaV3.2; read-out: EC50 on CaV3.2) | cytotoxicity (living tissue) | blocking of mechanotransduction ([1]; higher concentrations of mibefradil) | inhibition of cutaneous mechanotransduction ([1]; low concentrations (25 μM or less)) | blocking of the mechanical sensitivity ([1]; more than 25 μM mibefradil in the bath solution) | inhibition of D-hair mechanoreceptors (D-hair mechanoreceptors) | inhibition of AM mechanoreceptors (AM mechanoreceptors) | effect on T-type isotype CaV3.1 (CaV3.1) | effect / semi-effective concentration on CaV3.3 (CaV3.3) | effect / semi-effective concentration on CaV3.3 (CaV3.3; listed as Mibefradil) | concentration blocking L-type relative to that necessary for T-type blocking (L-type calcium channels) | interaction with other medicaments [2] | selectivity for T-type calcium channels (T-type calcium channels)
1 | [Ni] [nickel] | 70 times | ~10 µM | cytotoxic | – | – | – | – | – | – | – | – | – | – | –
2 | COCC(=O)O[C@]1(CCN(C)CCCc2nc3ccccc3[nH]2)CCc2cc(F)ccc2[C@@H]1C(C)C [mibefradil] | – | – | – | complex blocking of other mechanoreceptors; also recorded: blocks not only the D-hair mechanotransduction but also the entire mechanotransduction | virtually inhibits the entire cutaneous mechanotransduction | almost complete and unspecific blocking of the mechanical sensitivity | specifically inhibited | in part, also AM mechanoreceptors are specifically inhibited | almost identical effect | almost identical | almost identical effect | about 10 fold | severe interaction with other medicaments | relatively high selectivity for T-type calcium channels
